One block for each compound: values may come before it.
Target: T1, mouse TRPM3a2 (mTRPM3) ion channel (Mus musculus, UniProt J9SQF3)
T1 construct: expressed in transfected cells; host or cells: flip-in HEK293
Assay: TRPM3 ion channel driven Ca2+ uptake, Fluo-4 AM assay (PS-stimulated, overexpressing flip-in HEK293 cells)
Assay type: cell-based
How it was run: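 Flip-in HEK293 cells overexpressing mTRPM3α2, loaded with Fluo-4 AM, were added to wells with compound plus 50 μM pregnenolone sulfate in Ca2+-containing Krebs buffer and read immediately (ex 485/em 535 nm). Percent inhibition was scaled between PS-plus-vehicle and positive-control-inhibitor signals.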

[1] = PS (50 μM) stimulated, cpd 001-199
[2] = PS (50 μM) stimulated, cpds. 400-499
[3] = PS (50 μM) stimulated, cpds. 500-599

T1 sequence (J9SQF3 1-1709 isoform J9SQF3-12): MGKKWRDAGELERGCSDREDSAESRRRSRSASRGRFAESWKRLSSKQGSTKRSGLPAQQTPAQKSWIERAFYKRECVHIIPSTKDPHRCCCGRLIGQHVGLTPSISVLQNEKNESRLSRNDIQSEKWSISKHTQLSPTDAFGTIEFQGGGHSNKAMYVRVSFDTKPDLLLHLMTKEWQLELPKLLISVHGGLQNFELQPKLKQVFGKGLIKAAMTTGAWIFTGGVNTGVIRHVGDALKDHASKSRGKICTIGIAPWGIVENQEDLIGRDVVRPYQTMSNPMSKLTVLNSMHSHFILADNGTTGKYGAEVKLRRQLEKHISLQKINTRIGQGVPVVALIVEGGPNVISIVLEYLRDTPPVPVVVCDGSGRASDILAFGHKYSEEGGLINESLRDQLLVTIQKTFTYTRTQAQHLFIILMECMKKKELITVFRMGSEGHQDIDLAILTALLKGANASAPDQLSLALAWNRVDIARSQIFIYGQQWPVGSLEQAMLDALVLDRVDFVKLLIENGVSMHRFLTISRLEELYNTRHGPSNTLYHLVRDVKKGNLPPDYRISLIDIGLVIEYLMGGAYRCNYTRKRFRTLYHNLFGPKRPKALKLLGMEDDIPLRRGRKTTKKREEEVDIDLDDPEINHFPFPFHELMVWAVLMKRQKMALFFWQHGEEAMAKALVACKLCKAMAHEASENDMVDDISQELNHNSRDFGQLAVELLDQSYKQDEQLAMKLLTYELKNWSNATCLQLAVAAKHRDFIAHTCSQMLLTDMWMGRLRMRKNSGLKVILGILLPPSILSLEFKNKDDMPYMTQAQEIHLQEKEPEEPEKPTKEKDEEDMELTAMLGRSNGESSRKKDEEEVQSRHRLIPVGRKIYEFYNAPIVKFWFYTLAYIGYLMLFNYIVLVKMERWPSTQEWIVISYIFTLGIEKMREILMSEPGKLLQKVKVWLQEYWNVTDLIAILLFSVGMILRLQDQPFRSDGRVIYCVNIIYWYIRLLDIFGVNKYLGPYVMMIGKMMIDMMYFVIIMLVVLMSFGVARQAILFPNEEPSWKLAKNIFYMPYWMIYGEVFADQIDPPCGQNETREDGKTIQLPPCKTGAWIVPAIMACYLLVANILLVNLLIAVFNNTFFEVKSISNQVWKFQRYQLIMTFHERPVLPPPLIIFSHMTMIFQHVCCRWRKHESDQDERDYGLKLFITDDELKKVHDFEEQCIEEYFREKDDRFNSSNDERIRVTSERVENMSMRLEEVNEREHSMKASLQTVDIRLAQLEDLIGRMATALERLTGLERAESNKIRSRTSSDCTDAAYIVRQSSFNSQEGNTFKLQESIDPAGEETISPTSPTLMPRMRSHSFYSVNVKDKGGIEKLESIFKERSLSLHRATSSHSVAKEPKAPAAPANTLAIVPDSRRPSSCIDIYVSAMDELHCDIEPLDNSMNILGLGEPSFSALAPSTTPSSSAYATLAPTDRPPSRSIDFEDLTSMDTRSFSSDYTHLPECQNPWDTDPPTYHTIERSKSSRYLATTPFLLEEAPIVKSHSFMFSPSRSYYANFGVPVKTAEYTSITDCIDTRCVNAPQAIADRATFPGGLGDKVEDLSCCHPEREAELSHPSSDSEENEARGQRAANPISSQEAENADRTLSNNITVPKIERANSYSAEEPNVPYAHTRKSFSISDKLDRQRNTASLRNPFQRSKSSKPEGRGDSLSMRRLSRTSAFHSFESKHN

IC50 [1]: 1000 to 20000 nM
SMILES: Cc1ncsc1COc1ccc2oc(C)c(C(=O)NC3CCN(C(=O)OC(C)(C)C)CC3(F)F)c2c1 (stereo not drawn) [cpd 090, tert-butyl 3,3-difluoro-4-(2-methyl-5-((4-methylthiazol-5-yl)methoxy)benzofuran-3-carbox-amido)piperidine-1-carboxylate]

IC50 (PS (50 μM) stimulated, cpds. 600-666): 1000 to 20000 nM
SMILES: COc1ccc(COc2ccc3oc(C)c(C(=O)NC4(CO)CCOCC4)c3c2)cn1 [cpd 632, N-(4-(hydroxymethyl)tetrahydro-2H-pyran-4-yl)-5-((6-methoxypyridin-3-yl)methoxy)-2-methylbenzofuran-3-carboxamide]

IC50 (PS (50 μM) stimulated, cpds. 667-751): ≤ 1000 nM
SMILES: Cc1ncsc1COc1ccc2oc(C)c(C(=O)NC3(CO)CCNC3)c2c1 (single isomer, unassigned) [728 - En 2]

IC50 [3]: ≤ 1000 nM
SMILES: Cc1ncccc1COc1ccc2oc(C)c(C(=O)NC3(CO)CCCNC3=O)c2c1 (single isomer, unassigned) [512 - En 1]

IC50 [1]: 1000 to 20000 nM
SMILES: Cc1cc2oc(C)c(C(=O)NC3(CO)CCOCC3)c2cc1OCc1scnc1C [compound 185, N-(4-(hydroxymethyl)tetrahydro-2H-pyran-4-yl)-2,6-dimethyl-5-((4-methylthiazol-5-yl)methoxy)-benzofuran-3-carboxamide]

IC50 (PS (50 μM) stimulated Ca2+ influx, HEK293, cpds 200-299): 1000 to 20000 nM
SMILES: Cc1ncsc1COc1ccc2oc(C)c(C(=O)NC3(CO)CNC3)c2c1 [compound 201, N-(3-(hydroxymethyl)azetidin-3-yl)-2-methyl-5-((4-methylthiazol-5-yl)methoxy)benzofuran-3-carboxamide]

IC50 [2]: ≤ 1000 nM
SMILES: Cc1ncsc1COc1ccc2oc(C)c(C(=O)NC(C)(CO)C(N)=O)c2c1 (single isomer, unassigned) [463 - En 2]

IC50 [1]: ≤ 1000 nM
SMILES: COCCN1CCC(NC(=O)c2c(C)oc3ccc(OCc4scnc4C)cc23)C1=O (single isomer, unassigned) [169 - En 1]

Second part, the compound before the results:

SMILES: Cc1oc2ccc(OCc3cccnc3C(F)(F)F)cc2c1C(=O)NC1CN(CCO)CC1(F)F (single isomer, unassigned) [134 - En 2]
IC50 [1]: ≤ 1000 nM

SMILES: Cc1oc2ccc(OCc3cccnc3O)cc2c1C(=O)NC(C)C(N)=O (single isomer, unassigned) [436 - En 1]
IC50 [2]: ≤ 1000 nM

SMILES: Cc1oc2ccc(OCc3ccccn3)cc2c1C(=O)NC(C)C(N)=O (stereo not drawn) [435 - En 2]
IC50 [2]: ≤ 1000 nM

SMILES: Cc1oc2ccc(OCc3ccccn3)cc2c1C(=O)NC1(CO)CCNC1=O (single isomer, unassigned) [520 - En 2]
IC50 [3]: ≤ 1000 nM

SMILES: Cc1oc2ccc(OC(C)c3ccncc3)cc2c1C(=O)NC1CCN(C)CC1 (stereo not drawn) [cpd 045, 2-methyl-N-(1-methylpiperidin-4-yl)-5-(1-(pyridin-4-yl)ethoxy)benzofuran-3-carboxamide]
IC50 [1]: 1000 to 20000 nM

SMILES: Cc1oc2ccc(OCc3cccnc3C(F)(F)F)cc2c1C(=O)NC1CN(C)CC(F)(F)C1 (single isomer, unassigned) [141 - En 1]
IC50 [1]: ≤ 1000 nM

SMILES: Cc1ncc(COc2ccc3oc(C)c(C(=O)N[C@@H](CO)c4nc5ccccc5[nH]4)c3c2)s1 [401 - En 1, (R)-N-(1-(1H-benzo[d]imidazol-2-yl)-2-hydroxyethyl)-2-methyl-5-((2-methylthiazol-5-yl)methoxy)benzofuran-3-carboxamide]
IC50 [2]: ≤ 1000 nM

SMILES: Cc1oc2ccc(OCc3cccn(C)c3=O)cc2c1C(=O)NC1CCN(CCO)C1=O (stereo not drawn) [cpd 405, N-(1-(2-hydroxyethyl)-2-oxopyrrolidin-3-yl)-2-methyl-5-((1-methyl-2-oxo-1,2-dihydropyridin-3-yl)methoxy)benzofuran-3-carboxamide]
IC50 [2]: ≥ 20000 nM

SMILES: Cc1oc2ccc(OCc3cccnc3C(F)F)cc2c1C(=O)NC(CO)C(N)=O (single isomer, unassigned) [457 - En 1]
IC50 [2]: ≤ 1000 nM

SMILES: Cc1oc2ccc(OCc3cccnc3C(F)(F)F)cc2c1C(=O)NC1CN(C)CCC1(F)F (single isomer, unassigned) [131 - En 1]
IC50 [1]: ≤ 1000 nM

SMILES: Cc1oc2ccc(OCc3cnccn3)cc2c1C(=O)NC1CCNC1=O (stereo not drawn) [cpd 031, 2-methyl-N-(2-oxopyrrolidin-3-yl)-5-(pyrazin-2-ylmethoxy)benzofuran-3-carboxamide]
IC50 [1]: 1000 to 20000 nM

SMILES: Cc1oc2ccc(OCc3ccnn3CC(F)F)cc2c1C(=O)N[C@H](C(N)=O)[C@@H](C)O [cpd 381, N-((2S,3R)-1-amino-3-hydroxy-1-oxobutan-2-yl)-5-((1-(2,2-difluoroethyl)-1H-pyrazol-5-yl)methoxy)-2-methylbenzofuran-3-carboxamide]
IC50 (PS (50 μM) stimulated Ca2+ influx, HEK293, cpds 300-399): ≤ 1000 nM

SMILES: Cc1oc2ccc(OCc3cccn(C)c3=O)cc2c1C(=O)NC1CCNCC1(F)F (single isomer, unassigned) [544 - En 1]
IC50 [3]: 1000 to 20000 nM

Source: patent US20240336602A1 (Katholieke Universiteit Leuven, priority 2020, published 2024)
